Measured values from article PMC10463376, “Design, synthesis, in vitro anticancer, molecular docking and SAR studies of new series of pyrrolo[2,3-d]pyrimidine derivatives” (BMC Chemistry, 2023).
“Also recorded” adds a separate entry of the source.

Key:
Type in all cases: cell-based, human
DR4 [1] = assay: RT-qPCR DR4 mRNA in MCF7; conditions: MCF7, vs negative control
Procedure: (§1) All of the extractions were conducted on ice with ice-cold reagents. Total RNA from the different cell lines was isolated using Trizol (Invitrogen; Life Technologies, USA) according to the method of Sthoeger et al.. The 260:280 ratios were measured to determine RNA quality after the isolation method was completed according to the manufacturer’s instructions. A high-capacity cDNA reverse transcription kit was used to produce complementary DNA (cDNA) (Applied Biosystems, USA). […] The relative gene expression method (i.e., ΔΔCT) was used to analyze the real-time PCR data, as explained in Applied Biosystem User Bulletin No. 2. Each sample and gene were normalized using the β-actin gene.

[2] = tested on: breast cancer cell line (MCF-7); assay: DNA fragmentation assay, MCF7; conditions: MCF7, IC50, 24 h, vs negative control (P < 0.01); order 14a > 18b > positive > 16b > 14b
Procedure: (§2) The DNA fragmentation assay in a pancreatic cell line (Paca2), breast cancer cell lines (MCF-7) and lung cell line (A549) was performed in concordance with the premises established by Yawata with some modifications. Briefly, after 24 h of exposure of Paca2, MCF-7 and A549 cancer cell lines to the prepared compounds in different Petri dishes (60 × 15 mm, Greiner), the cells were suspended and homogenized in 1 ml of medium and then centrifuged for 10 min at 900 rpm. The genomic DNA was extracted as shown in Yawata. About 1 × 10^6 cells of each tested cancer cell line were treated with the IC50 values of the tested compounds. All the cells were collected via trypsinization and washed with Dulbecco`s Phosphate Buffered Saline. Then, the cells were treated with the lysis buffer containing 5 mM ethylenediaminetetraacetic acid (EDTA), 10 mM Tris (pH 7.4), 0.5% Triton X-100 and 150 mM NaCl for 35 min on ice. After that, the lysates were vortexed and centrifuged for 20 min at 10.000 xg. The fragmented DNA was extracted from the supernatant with an equal volume of isoamyl alcohol: chloroform: neutral phenol mixture (1:24:25). Finally, the percentage of fragmented DNA was determined by performing gel electrophoresis using 2% agarose gel containing 0.1 μg/ml ethidium bromide.
Pancreatic cancer cell line (Paca2), breast cancer cell line (MCF-7) and lung cancer cell line (A549) were used to determine the percentage of DNA fragmentation after the treatment with IC50 of the tested compounds. The selected cells were suspended in 0.5 ml of lysis buffer containing 1 mM EDTA, 10 mM Tris–HCl (pH 8) and 0.2% triton X-100. Then, the cells were centrifuged at 10.000 rpm for 20 min at 4 °C. After removing the supernatant, the pellets were re-suspended in 0.5 ml of lysis buffer. Then, 0.5 ml of 25% tri-chloroacetic acid (TCA) was added to the pellets (P) and the supernatants (S), and incubated for 24 h at 4 °C. Afterwards, the cells were centrifuged at 4 °C for 25 min at 10,000 rpm and the pellets were suspended in […] of 5% TCA, followed by incubation at 80 °C for 20 min. Finally, […] of Diphenyl Amine (DPA) solution [[…] of sulfuric acid, 150 mg DPA in 10 ml glacial acetic acid, and […] acetaldehyde (16 mg/ml)] was added to each cell sample and kept at room temperature for 24 h. The percentage of fragmented DNA was measured from the absorbance reading at 600 nm wavelength using the following formula:
% Fragmented DNA = [OD(S)/[OD(S) + OD(P)] × 100 (OD: optical density, S: supernatant, P: pellet).

BAX [3] = assay: RT-qPCR BAX mRNA in MCF7; conditions: MCF7, vs negative control
Procedure: as §1

DR4 [4] = assay: RT-qPCR DR4 mRNA in A549
Procedure: as §1

Casp-3 [5] = assay: RT-qPCR Casp-3 mRNA in A549
Procedure: as §1

DR5 [6] = assay: RT-qPCR DR5 mRNA in A549
Procedure: as §1

Bcl-2 [7] = assay: RT-qPCR Bcl-2 mRNA in Paca2; conditions: 17 vs both Dox. and negative control
Procedure: as §1

DR5 [8] = assay: RT-qPCR DR5 mRNA in Paca2; conditions: 17 vs both Dox. and negative control
Procedure: as §1

[9] = tested on: pancreatic cell line (Paca2); assay: DNA fragmentation assay, Paca2; conditions: Paca2, IC50, 24 h, vs negative control (P < 0.01); 17 higher than Dox.
Procedure: as §2, with “After that, the lysates were vortexed and centrifuged for 20 min at 10.000 xg. The fragmented DNA was extracted from the supernatant with an equal volume of isoamyl alcohol: chloroform: neutral phenol mixture (1:24:25).” left out
Pancreatic cancer cell line (Paca2), breast cancer cell line (MCF-7) and lung cancer cell line (A549) were used to determine the percentage of DNA fragmentation after the treatment with IC50 of the tested compounds. […] The percentage of fragmented DNA was measured from the absorbance reading at 600 nm wavelength using the following formula: […]

P53 = assay: RT-qPCR P53 mRNA in A549; conditions: A549, vs negative control
Procedure: as §1

BAX [10] = assay: RT-qPCR BAX mRNA in Paca2; conditions: 17 vs both Dox. and negative control
Procedure: as §1

CDK4 = assay: RT-qPCR CDK4 mRNA in Paca2; conditions: 17 vs both Dox. and negative control
Procedure: as §1

DR4 [11] = assay: RT-qPCR DR4 mRNA in Paca2; conditions: 17 vs both Dox. and negative control
Procedure: as §1

BAX [12] = assay: RT-qPCR BAX mRNA in A549; conditions: A549, vs negative control
Procedure: as §1

Bcl-2 [13] = assay: RT-qPCR Bcl-2 mRNA in A549; conditions: A549, vs negative control
Procedure: as §1

Casp-3 [14] = assay: RT-qPCR Casp-3 mRNA in Paca2; conditions: 17 vs both Dox. and negative control
Procedure: as §1

IL-8 = assay: RT-qPCR IL-8 mRNA in Paca2; conditions: 17 vs both Dox. and negative control
Procedure: as §1

MCF7 cells = assay: Flow cytometric cell cycle analysis (PI), MCF7; conditions: MCF7, 24 h, IC50 concentration; for cell cycle arrest (phase): vs untreated control; for percentage of cells in the G0/G1 phase: control 11.43%
Procedure: Herein, the negative control was the untreated MCF7 cells and Doxorubicin was used as a positive control. Firstly, after the treatment time of 24 h, MCF7 cells were centrifuged at 1000 rpm for 5 min at 4 °C. The supernatant was discarded and the cells pellet were washed in phosphate-buffered saline (PBS). Then, the cells pellet were centrifuged at 1000 rpm for another 5 min. Afterward, the cells were collected in a single-cell suspension and maintained in 70% ethanol overnight on ice. Then, cells were washed with 1 ml PBS. At last, 200 µl 1 × propidium iodide (PI) mixture was added to the cells pellet in the dark at room temperature for 30 min. Then, the DNA content was analyzed by subjecting the cells to an Epics XL-MCL flow cytometer (Beckman Coulter, Miami, FL). The distribution of cells at different phases of the cell cycle was determined by Multi-cycle software (Phoenix Flow Systems, San Diego, CA).

COc1ccc(-c2c(Cl)n(-c3ccc(Cl)cc3Cl)c3ncnc(N4CCOCC4)c23)cc1OC [Compound 18b, 4-(6-chloro-7-(2,4-dichlorophenyl)-5-(3,4-dimethoxyphenyl)-7H-pyrrolo[2,3-d]pyrimidin-4-yl)morpholine]
DR4 mRNA level (DR4 [1]): increased; also recorded: up-regulated | DNA fragmentation rate [2]: increased significantly | BAX mRNA level (BAX [3]): up-regulated

COc1cccc2c1C(=O)c1c(O)c3c(c(O)c1C2=O)C[C@@](O)(C(=O)CO)C[C@@H]3O[C@H]1C[C@H](N)[C@H](O)[C@H](C)O1 [Dox, Doxorubicin, reference compound]
DR4 mRNA level (DR4 [4]): up-regulated | Casp-3 mRNA level (Casp-3 [5]): up-regulated | DR4 mRNA level (DR4 [1]): increased | DR5 mRNA level (DR5 [6]): up-regulated | Bcl-2 mRNA level (Bcl-2 [7]): no significant difference | DR5 mRNA level (DR5 [8]): no significant difference | DNA fragmentation rate [9]: increased significantly | P53 mRNA level (P53): up-regulated | BAX mRNA level (BAX [10]): no significant difference | CDK4 mRNA level (CDK4): no significant difference | DR4 mRNA level (DR4 [11]): no significant difference | BAX mRNA level (BAX [12]): up-regulated | Bcl-2 mRNA level (Bcl-2 [13]): down-regulated | Casp-3 mRNA level (Casp-3 [14]): no significant difference | BAX mRNA level (BAX [3]): up-regulated | IL-8 mRNA level (IL-8): no significant difference

COc1ccc(-c2c(Cl)n(-c3ccc(Cl)cc3Cl)c3ncnc(N4CCN(C)CC4)c23)cc1OC [Compound 16b, 6-chloro-7-(2,4-dichlorophenyl)-5-(3,4-dimethoxyphenyl)-4-(4-methylpiperazin-1-yl)-7H-pyrrolo[2,3-d]pyrimidine]
DR4 mRNA level (DR4 [1]): increased | DNA fragmentation rate [2]: increased significantly | BAX mRNA level (BAX [3]): up-regulated

NNc1ncnc2c1c(-c1ccc(Br)cc1)c(Cl)n2-c1ccc(Cl)cc1Cl [Compound 14a, 5-(4-bromophenyl)-6-chloro-7-(2,4-dichlorophenyl)-4-hydrazineyl-7H-pyrrolo[2,3-d]pyrimidine]
DR4 mRNA level (DR4 [1]): increased; also recorded: up-regulated | cell cycle arrest (phase) (MCF7 cells): G1 and S phases; also recorded: G1/S phase | percentage of cells in the G0/G1 phase (MCF7 cells): 68.60% | DNA fragmentation rate [2]: increased significantly | BAX mRNA level (BAX [3]): up-regulated

CN1CCN(c2nc(C(Cl)(Cl)Cl)nc3c2c(-c2ccc(Br)cc2)c(Cl)n3-c2ccc(Cl)cc2Cl)CC1 [Compound 17, 5-(4-bromophenyl)-6-chloro-7-(2,4-dichlorophenyl)-4-(4-methylpiperazin-1-yl)-2-(trichloromethyl)-7H-pyrrolo[2,3-d]pyrimidine]
Bcl-2 mRNA level (Bcl-2 [7]): down-regulated | DR5 mRNA level (DR5 [8]): up-regulated | DNA fragmentation rate [9]: increased significantly | BAX mRNA level (BAX [10]): up-regulated | CDK4 mRNA level (CDK4): lowered | DR4 mRNA level (DR4 [11]): up-regulated | Casp-3 mRNA level (Casp-3 [14]): up-regulated | IL-8 mRNA level (IL-8): lowered

COc1ccc(-c2c(Cl)n(-c3ccc(Cl)cc3Cl)c3ncnc(NN)c23)cc1OC [Compound 14b, 6-chloro-7-(2,4-dichlorophenyl)-5-(3,4-dimethoxyphenyl)-4-hydrazineyl-7H-pyrrolo[2,3-d]pyrimidine]
DR4 mRNA level (DR4 [1]): increased; also recorded: up-regulated | cell cycle arrest (phase) (MCF7 cells): G1 and S phases; also recorded: G1/S phase | percentage of cells in the G0/G1 phase (MCF7 cells): 85.98% | DNA fragmentation rate [2]: increased significantly | BAX mRNA level (BAX [3]): up-regulated

COc1ccc(-c2c(Cl)n(-c3ccc(Cl)cc3Cl)c3ncnc(Cl)c23)cc1OC [Compound 4b, 4,6-dichloro-7-(2,4-dichlorophenyl)-5-(3,4-dimethoxyphenyl)-7H-pyrrolo[2,3-d]pyrimidine]
DR4 mRNA level (DR4 [4]): up-regulated | Casp-3 mRNA level (Casp-3 [5]): up-regulated | DR5 mRNA level (DR5 [6]): up-regulated | P53 mRNA level (P53): up-regulated | BAX mRNA level (BAX [12]): up-regulated | Bcl-2 mRNA level (Bcl-2 [13]): down-regulated
